Data from article PMC12750394 (ACS Omega, 2025).
Bridge positions count the residues as written; N and C are the ends. Square brackets hold non-standard residues; d marks the D form. Peptide text beside a SMILES is read from it. * marks the point of attachment. X1 = CC[C@H](C)CCCCC(=O)*; Dab = NCC[C@H](N)C(=O)O

Assays:
E. coli = assay: microbe, parasite or virus in culture; conditions: for average MIC against E. coli: microbroth dilution, 4 × 10^6 CFU/mL, 1 h at 37 °C, TSB added, 24 h at 37 °C, growth inhibition read visually, highest DesHDAP2 concentration […], three technical replicates each from four independent biological experiments
Protocol: (§1) For radial diffusion, microbroth dilution, and checkerboard assays, bacterial cultures in tryptic soy broth (TSB) were started from individual colonies picked from agar plates and grown overnight (≈16–18 h) in a shaking incubator at 37 °C. Overnight bacterial cultures were diluted into fresh TSB and grown at 37 °C to an optical density (OD600) of 0.5–0.7. Bacteria were pelleted via centrifuge at 1500g at room temperature for 10 min, washed once with cold sterile sodium phosphate buffer (10 mM Na3PO4, 100 mM NaCl, pH 7.4), then pelleted and resuspended again in sodium phosphate buffer.
(§2) Antimicrobial activity was assessed using the microbroth dilution assay. A resuspended bacterial culture prepared as described above was mixed with deionized water to reach a final bacterial concentration of 4 × 10^6 CFU/mL. A twofold dilution series of peptides in deionized water was prepared. 10 μL of the serial dilutions were added to 90 μL of the 4 × 10^6 CFU/mL bacterial solution in a 96-well plate. […] After incubating for 1 h at 37 °C, 50 μL of TSB was added to each testing well.

B. subtilis = assay: microbe, parasite or virus in culture; conditions: for average MIC against B. subtilis: microbroth dilution, 4 × 10^6 CFU/mL, 1 h at 37 °C, TSB added, 24 h at 37 °C, growth inhibition read visually, highest DesHDAP2 concentration […], three technical replicates each from four independent biological experiments; for MIC: Bacillus subtilis, read-out: average MIC against B. subtilis
Source text: as §1, with “The bacteria species and strains used in this study were: Top10 E. coli containing a pET plasmid with ampicillin resistance (Invitrogen Top10), S. marcescens (Carolina Biosciences #155554A), E. aerogenes (ATCC #51697), E. raffinosus (ATCC #49464), S. epidermidis (ATCC #14990) and B. subtilis (ATCC #6501). For” for “For”
as §2, with “well. After incubation for 24 h at 37 °C, growth inhibition was determined visually to assess MIC.” for “well.”

Compound | average MIC against E. coli (E. coli) | average MIC against B. subtilis (B. subtilis) | MIC (B. subtilis) | MIC (E. coli; Escherichia coli, read-out: average MIC against E. coli)
CC[C@H](C)CCCCC(=O)N[C@@H](CCN)C(=O)N[C@H](C(=O)N[C@@H](CCN)C(=O)N[C@H]1CCNC(=O)[C@H]([C@@H](C)O)NC(=O)[C@H](CCN)NC(=O)[C@H](CCN)NC(=O)[C@H](CC(C)C)NC(=O)[C@@H](Cc2ccccc2)NC(=O)[C@H](CCN)NC1=O)[C@@H](C)O [polymyxin B] (X1-[Dab]T[Dab][Dab][Dab][dF]L[Dab][Dab]T; lactam 4-C (inferred); N-terminus assumed) | 65 µg/mL | 2000 µg/mL |  | 
CN(C)[C@@H]1C(O)=C(C(N)=O)C(=O)[C@@]2(O)C(O)=C3C(=O)c4c(O)cccc4[C@@](C)(O)[C@H]3C[C@@H]12 [tetracycline] |  |  | 15.6 µg/mL | 
NC[C@H]1O[C@H](O[C@H]2[C@H](O)[C@@H](O[C@H]3O[C@H](CO)[C@@H](O)[C@H](N)[C@H]3O)[C@H](N)C[C@@H]2N)[C@H](O)[C@@H](O)[C@@H]1O [kanamycin] | 50 µg/mL | 3.125 µg/mL |  | 
C[C@H]1COc2c(N3CCN(C)CC3)c(F)cc3c(=O)c(C(=O)O)cn1c23 [levofloxacin] |  |  | 5 µg/mL | 0.2 µg/mL
